Assay [1] in a line: Binding parameter for complete inhibition of Wild type Transthyretin amyloid fibril formation at pH 4.4 with negative cooperativity by the compound at a concentration of (10.8).
Assay [2] can be described thus: Concentration completly inhibiting Wild type TTR amyloid fibril formation at pH 4.4. The format is functional.

Take `O=C(O)c1ccccc1Nc1cccc(C(F)(F)F)c1`: in assay [1], the KD1 came to 30.1 nM and the KD2 stood at 255 nM.

In assay [2], `O=C(O)c1cccc(Nc2ccccc2C(=O)O)c1` returned a Concentration of 7.6 µM.

These data come from ChEMBL document CHEMBL1131690, “Synthesis and evaluation of anthranilic acid-based transthyretin amyloid fibril inhibitors” (Bioorg Med Chem Lett, 1999).
